Experimental data: patent US20240100116A1, “EUCOMMIA ULMOIDES OLIV. LEAF EXTRACT CAPABLE OF PROTECTING HEALTH OF KIDNEY FUNCTION, AND PREPARATION AND DETECTION METHODS THEREOF” (Chenland Nutritionals Inc., priority 2023, published 2024)

Target: xanthine oxidase (Homo sapiens, UniProt P47989)
Experiment: Xanthine oxidase (XOD) inhibition, uric acid production read at OD290 nm
Assay type: biochemical
Conditions: read-out: Inhibition rate (%)
Experimental: Xanthine oxidase catalyzes a xanthine substrate to produce uric acid and superoxide anion, and uric acid has a characteristic absorption peak under 290 nm UV conditions. By measuring the change curve of absorbance value within a certain time, the slope of this curve is the production rate of the uric acid, to measure the change of the activity of xanthine oxidase, so as to judge the uric acid lowering ability of the sample.
92.4 μL of xanthine oxidase mother solution (5 U/770 μL) is drawn in a centrifuge tube, and diluted with 11.9076 mL of PBS to obtain 0.05 U/mL xanthine oxidase working solution which shall be prepared for immediate use.
0.02284 g of xanthine is weighed in a beaker; 1.2 mL of 1 mol/L NaOH solution is added; ultrasonic treatment is conducted for 20 min; and the volume is fixed to 100 mL with the PBS to obtain 1.5 mmol/L xanthine working solution.
Eucommia ulmoides Oliv. leaf extract solutions: 0.50 g of corresponding Eucommia ulmoides Oliv. leaf extract sample in embodiment 5 is weighed; the volume is fixed to 50 mL with the PBS; the solution is thoroughly mixed well to prepare 10.0 mg/mL mother solution; and the mother solution is diluted with the PBS to different multiples to obtain different concentrations of Eucommia ulmoides Oliv. solutions.
2.1 A proper quantity of centrifugal tubes are taken and numbered as OD1, OD2, OD3 and OD4 respectively. Reagents are added to each tube according to the combinations of Table 1.
The concentrations are plotted in horizontal coordinates and the inhibition rates are plotted in vertical coordinates to calculate the concentration IC50 with half inhibition rate.

Chain of xanthine oxidase (P47989 whole entry, species assumed): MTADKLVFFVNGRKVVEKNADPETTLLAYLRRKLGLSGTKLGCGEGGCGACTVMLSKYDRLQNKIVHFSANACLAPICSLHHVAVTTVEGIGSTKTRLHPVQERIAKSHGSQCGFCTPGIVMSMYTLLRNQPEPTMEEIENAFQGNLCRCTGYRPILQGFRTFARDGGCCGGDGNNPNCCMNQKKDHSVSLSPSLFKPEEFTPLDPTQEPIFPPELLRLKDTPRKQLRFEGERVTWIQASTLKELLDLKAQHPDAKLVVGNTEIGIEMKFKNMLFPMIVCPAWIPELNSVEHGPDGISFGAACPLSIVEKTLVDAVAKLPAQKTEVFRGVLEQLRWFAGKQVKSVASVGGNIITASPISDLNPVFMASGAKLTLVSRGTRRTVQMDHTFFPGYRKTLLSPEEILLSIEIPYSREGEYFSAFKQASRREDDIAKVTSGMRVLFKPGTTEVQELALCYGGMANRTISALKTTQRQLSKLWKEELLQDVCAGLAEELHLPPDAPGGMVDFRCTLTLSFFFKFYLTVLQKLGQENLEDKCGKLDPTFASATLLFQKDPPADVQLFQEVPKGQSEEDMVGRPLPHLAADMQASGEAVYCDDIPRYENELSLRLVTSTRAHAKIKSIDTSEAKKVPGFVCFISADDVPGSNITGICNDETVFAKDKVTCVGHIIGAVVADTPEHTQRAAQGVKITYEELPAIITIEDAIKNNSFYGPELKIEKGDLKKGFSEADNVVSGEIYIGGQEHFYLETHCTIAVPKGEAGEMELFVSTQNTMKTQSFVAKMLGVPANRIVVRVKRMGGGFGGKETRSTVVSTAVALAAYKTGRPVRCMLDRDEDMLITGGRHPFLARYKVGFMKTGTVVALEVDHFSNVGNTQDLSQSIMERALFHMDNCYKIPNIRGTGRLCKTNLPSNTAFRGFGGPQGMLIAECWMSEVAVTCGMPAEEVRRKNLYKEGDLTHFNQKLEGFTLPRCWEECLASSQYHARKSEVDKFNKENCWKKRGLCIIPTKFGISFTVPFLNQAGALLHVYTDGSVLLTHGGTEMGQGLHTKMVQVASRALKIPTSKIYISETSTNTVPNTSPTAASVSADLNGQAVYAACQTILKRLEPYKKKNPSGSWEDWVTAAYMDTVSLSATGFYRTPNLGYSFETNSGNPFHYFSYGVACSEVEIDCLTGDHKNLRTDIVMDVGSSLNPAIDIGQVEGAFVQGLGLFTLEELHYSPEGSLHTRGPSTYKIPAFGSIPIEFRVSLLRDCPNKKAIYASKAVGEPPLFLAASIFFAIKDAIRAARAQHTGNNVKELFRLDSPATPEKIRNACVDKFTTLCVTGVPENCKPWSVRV

In the case of `Oc1ncnc2[nH]ncc12` [Allopurinol, allopurinol], the inhibition at 0.05 µg/mL (0.05 μg/ml) is reported as 34.1%, the inhibition at 1 µg/mL (1 μg/ml) is reported as 44.9% and the inhibition at 5 µg/mL (5 μg/ml) is reported as 59.4%. For the same compound, the inhibition at 10 µg/mL (10 μg/ml) was 74%, the inhibition at 15 µg/mL (15 μg/ml) was 81.2% and the inhibition at 20 µg/mL (20 μg/ml) was 87.2%. The inhibition at 25 µg/mL (25 μg/ml) was 93.3%.
